The target of this assay is Tyrosine-protein kinase JAK2 (Homo sapiens, UniProt O60674). As to the kind of experiment: Enzyme Screening Assay. The procedure:
Alphascreen phosphotyrosine acceptor beads followed by streptavidin donor beads at a concentration of 1/100 in stop buffer were added to each well under subdued light and incubated for 2-3 hours. The Alphascreen plates were read on a Packard Fusion Alpha instrument

Tyrosine-protein kinase JAK2, sequence (O60674 whole entry, the tested form may be a part): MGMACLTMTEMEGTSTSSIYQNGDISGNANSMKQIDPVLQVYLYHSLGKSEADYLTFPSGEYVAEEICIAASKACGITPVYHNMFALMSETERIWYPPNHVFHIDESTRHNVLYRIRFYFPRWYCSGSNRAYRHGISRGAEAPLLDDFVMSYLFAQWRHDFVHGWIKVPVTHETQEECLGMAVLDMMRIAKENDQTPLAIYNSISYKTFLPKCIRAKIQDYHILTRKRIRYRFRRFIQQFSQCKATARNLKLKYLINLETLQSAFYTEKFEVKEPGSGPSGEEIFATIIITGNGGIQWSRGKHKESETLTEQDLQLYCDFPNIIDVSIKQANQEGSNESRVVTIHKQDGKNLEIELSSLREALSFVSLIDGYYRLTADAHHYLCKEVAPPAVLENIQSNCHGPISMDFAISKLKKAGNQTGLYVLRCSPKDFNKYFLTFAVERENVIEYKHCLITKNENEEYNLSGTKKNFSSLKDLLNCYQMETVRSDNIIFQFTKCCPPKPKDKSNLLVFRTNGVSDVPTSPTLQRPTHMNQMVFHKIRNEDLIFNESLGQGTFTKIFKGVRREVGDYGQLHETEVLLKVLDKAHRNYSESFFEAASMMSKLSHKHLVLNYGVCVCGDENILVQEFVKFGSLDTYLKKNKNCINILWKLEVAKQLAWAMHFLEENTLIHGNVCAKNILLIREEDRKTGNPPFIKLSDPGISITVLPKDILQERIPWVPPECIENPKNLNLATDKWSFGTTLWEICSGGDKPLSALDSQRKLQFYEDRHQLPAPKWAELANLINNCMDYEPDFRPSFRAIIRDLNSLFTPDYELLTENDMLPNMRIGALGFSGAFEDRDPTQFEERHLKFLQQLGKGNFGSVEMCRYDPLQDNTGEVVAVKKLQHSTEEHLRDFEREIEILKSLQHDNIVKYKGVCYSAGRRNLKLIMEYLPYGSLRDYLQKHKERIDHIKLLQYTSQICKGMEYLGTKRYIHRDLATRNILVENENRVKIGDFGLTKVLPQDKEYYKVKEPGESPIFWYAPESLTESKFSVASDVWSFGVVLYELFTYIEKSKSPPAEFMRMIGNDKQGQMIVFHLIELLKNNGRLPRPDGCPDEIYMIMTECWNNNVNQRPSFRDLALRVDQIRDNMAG

A word on the IC50: it is the concentration needed to halve the response being measured. Read a low IC50 as greater potency in that assay. In turn, `CCN1CCC(OC2CCC(Nc3nccc(-c4ccc(C(=O)NCC#N)cc4)n3)CC2)CC1` (stereo unspecified) [US12570614, Compound 80] showed an IC50 of less than 1 µM.
